Assay [1] concerns the target T1, PIM1 serine/threonine kinase (Homo sapiens, UniProt P11309).
T1 construct: purchased Carna Bioscience, Inc
Kind of assay: PIM1 serine/threonine kinase inhibitory effect. Format: biochemical. The following applies: PIM1 serine/threonine kinase activity; ATP 40 μM; 30° C., 30 minutes. In short, it runs like this: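 Recombinant PIM1 (0.15 μg/ml final) with 0.5 μM biotinylated substrate and 40 μM ATP in pH 7.0 HEPES/MgCl2 buffer, 30 min at 30° C. Compound range was 0.01–10000 nM final, n=2. HTRF detection with streptavidin-XL665 and anti-phospho antibody-cryptate, 1 h; IC50 from non-linear regression of the 665/620 ratio.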

Assay [2] has as its target PIM1 transgenic cells (Ba/F3) (Homo sapiens, UniProt P11309). Kind of assay: Proliferation inhibitory effect on PIM1 transgenic cells. The assay is classed as cell-based, mouse. As to conditions: proliferation inhibition, 72 hours, Cell Counting Kit-8, read-out: PIM1 IC50. In short, it runs like this: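 Mouse Ba/F3 pro-B cells were retrovirally transduced with human PIM1 so that their proliferation depends on PIM1. Cells were treated with compound at 1–10000 nM final for 72 h, then read by CCK-8 (OD450−OD650). Inhibition was set against DMSO (0%) and no-cell blank (100%), and IC50 was obtained by two-parameter logistic regression.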

IC50 and GI50 data for 21 molecules are collected here from US20220024921A1, “1,3,4-OXADIAZOLONE COMPOUND AND PHARMACEUTICAL” (NIPPON SHINYAKU CO., LTD., priority 2018, published 2022).

Where a name gives a salt, the structure may show the parent alone.

PIM1 transgenic cells (Ba/F3), sequence (P11309 whole entry, stated change not applied): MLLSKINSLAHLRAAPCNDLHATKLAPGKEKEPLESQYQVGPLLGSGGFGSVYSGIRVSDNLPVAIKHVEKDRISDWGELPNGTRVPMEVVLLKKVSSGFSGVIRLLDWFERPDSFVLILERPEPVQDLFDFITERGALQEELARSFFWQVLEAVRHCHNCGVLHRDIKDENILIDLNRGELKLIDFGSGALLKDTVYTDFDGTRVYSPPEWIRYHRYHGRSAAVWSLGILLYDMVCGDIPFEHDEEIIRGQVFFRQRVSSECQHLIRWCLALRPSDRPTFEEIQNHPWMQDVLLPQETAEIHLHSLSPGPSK
T1 sequence (P11309 whole entry): as the sequence (P11309 whole entry, stated change not applied) above

As to `C[C@H](Nc1cc(-c2n[nH]c(=O)o2)cc(F)c1C(F)(F)F)C1(C)CCNCC1` [Example 206, 5-[3-fluoro-5-{[(1S)-1-(4-methylpiperidin-4-yl)ethyl]amino}-4-(trifluoromethyl)phenyl]-1,3,4-oxadiazol-2(3H)-one], in assay [1], half-maximal inhibition (IC50) required 1.7 nM. Moreover, the GI50 in assay [2] was 32 nM.

As to `C[C@H](Nc1cc(-c2n[nH]c(=O)o2)cc(F)c1OC(F)(F)F)C1(C)CCNCC1` [Example 207, 5-[3-fluoro-5-{[(1S)-1-(4-methylpiperidin-4-yl)ethyl]amino}-4-(trifluoromethoxy)phenyl]-1,3,4-oxadiazol-2(3H)-one], it took 2.6 nM to reach half-maximal inhibition in assay [1] (IC50). Also, the GI50 in assay [2] worked out at 50 nM.

`CN[C@H]1C[C@@H]([C@H](C)Nc2cc(-c3n[nH]c(=O)o3)cc(F)c2OC(F)(F)F)C1` [Example 208, 5-[3-fluoro-5-({(1S)-1-[(1s,3R)-3-(methylamino)cyclobutyl]ethyl}amino)-4-(trifluoromethoxy)phenyl]-1,3,4-oxadiazol-2(3H)-one]: in assay [1], the IC50 (as a rule, the midpoint of a concentration-inhibition curve) turned out to be 8.5 nM. Besides, the GI50 in assay [2] stood at 130 nM.

In the case of `O=c1[nH]nc(-c2ccc(C(F)(F)F)c(N[C@@H](CF)C3(F)CCNCC3)c2)o1` [Example 209, 5-[3-{[(1S)-2-fluoro-1-(4-fluoropiperidin-4-yl)ethyl]amino}-4-(trifluoromethyl)phenyl]-1,3,4-oxadiazol-2(3H)-one], inhibition in assay [1] was half-maximal at 5.7 nM (IC50). Moreover, the GI50 in assay [2] stood at 100 nM.

For the molecule `C[C@H](Nc1cc(-c2n[nH]c(=O)o2)cc(F)c1C(F)(F)F)[C@@H]1CCNC[C@@H]1C` [Example 211, 5-[3-fluoro-5-({(1S)-1-[(3R,4R)-3-methylpiperidin-4-yl]ethyl}amino)-4-(trifluoromethyl)phenyl]-1,3,4-oxadiazol-2(3H)-one], the IC50 in assay [1] is 4.9 nM. For the same molecule, the GI50 in assay [2] turned out to be 110 nM.

The molecule `C[C@H](Nc1cc(-c2n[nH]c(=O)o2)cc(F)c1OC(F)F)C1CCNCC1` [Example 212, 5-[4-(difluoromethoxy)-3-fluoro-5-{[(1S)-1-(piperidin-4-yl)ethyl]amino}phenyl]-1,3,4-oxadiazol-2(3H)-one] had an IC50 in assay [1] of 2.1 nM. The GI50 in assay [2] amounted to 73 nM.

Take `C[C@H](Nc1cc(-c2n[nH]c(=O)o2)cc(F)c1OC(F)F)C1(C)CCNCC1` [Example 213, 5-[4-(difluoromethoxy)-3-fluoro-5-{[(1S)-1-(4-methylpiperidin-4-yl)ethyl]amino}phenyl]-1,3,4-oxadiazol-2(3H)-one]: inhibition in assay [1] was half-maximal at 2 nM (IC50). For the same molecule, the GI50 in assay [2] came to 85 nM.

For `C[C@@H]1C[C@H]([C@H](C)Nc2cc(-c3n[nH]c(=O)o3)cc(F)c2OC(F)F)CCN1` [Example 216, 5-[4-(difluoromethoxy)-3-fluoro-5-({(1S)-1-[(2R,4R)-2-methylpiperidin-4-yl]ethyl}amino)phenyl]-1,3,4-oxadiazol-2(3H)-one], in assay [1], the IC50 was found to be 3.5 nM. Also, the GI50 in assay [2] worked out at 45 nM.

For the molecule `C[C@@H]1CNCC[C@@H]1[C@H](C)Nc1cc(-c2n[nH]c(=O)o2)ccc1OC(F)(F)F` [Example 218, 5-[3-({(1S)-1-[(3S,4S)-3-methylpiperidin-4-yl]ethyl}amino)-4-(trifluoromethoxy)phenyl]-1,3,4-oxadiazol-2(3H)-one], the IC50 in assay [1] is 2.9 nM. Also, the GI50 in assay [2] is 27 nM.

Take `C[C@@H]1CNCC[C@@H]1[C@H](C)Nc1cc(-c2n[nH]c(=O)o2)ccc1OC(F)F` [Example 220, 5-[4-(difluoromethoxy)-3-({(1S)-1-[(3S,4S)-3-methylpiperidin-4-yl]ethyl}amino)phenyl]-1,3,4-oxadiazol-2(3H)-one]: the IC50 in assay [1] turned out to be 6.1 nM. Moreover, the GI50 in assay [2] was 110 nM.

In assay [1], `C[C@@H]1CNCC[C@@H]1[C@H](C)Nc1cc(-c2n[nH]c(=O)o2)ccc1Cl` [Example 221, 5-[4-chloro-3-({(1S)-1-[(3S,4S)-3-methylpiperidin-4-yl]ethyl}amino)phenyl]-1,3,4-oxadiazol-2(3H)-one] gave a half-inhibitory concentration (IC50) of 7.2 nM. Also, the GI50 in assay [2] worked out at 46 nM.

Molecule `C[C@@H]1CNCC[C@@H]1[C@H](C)Nc1cc(-c2n[nH]c(=O)o2)cc(F)c1Cl` [Example 222, 5-[4-chloro-3-fluoro-5-({(1S)-1-[(3S,4S)-3-methylpiperidin-4-yl]ethyl}amino)phenyl]-1,3,4-oxadiazol-2(3H)-one] returned an IC50 in assay [1] of 2.4 nM. The GI50 in assay [2] was 19 nM.

Turning to `CC[C@H]1CNCC[C@H]1[C@H](C)Nc1cc(-c2n[nH]c(=O)o2)cc(F)c1C(F)(F)F` [Example 226, 5-[3-({(1S)-1-[(3R,4R)-3-ethylpiperidin-4-yl]ethyl}amino)-5-fluoro-4-(trifluoromethyl)phenyl]-1,3,4-oxadiazol-2(3H)-one], the IC50 in assay [1] was determined as 5.4 nM. For the same molecule, the GI50 in assay [2] turned out to be 83 nM.

Turning to `C[C@H](Nc1cc(-c2n[nH]c(=O)o2)cc(F)c1C1CC1)[C@H]1CC[C@H](N)CC1` [Example 230, 5-[3-({(1S)-1-[(1r,4S)-4-aminocyclohexyl]ethyl}amino)-4-cyclopropyl-5-fluorophenyl]-1,3,4-oxadiazol-2(3H)-one], in assay [1], the IC50 turned out to be 3.3 nM. Also, the GI50 in assay [2] worked out at 22 nM.

`CCc1c(F)cc(-c2n[nH]c(=O)o2)cc1N[C@@H](C)[C@H]1CC[C@H](N)CC1` [Example 231, 5-[3-({(1S)-1-[(1r,4S)-4-aminocyclohexyl]ethyl}amino)-4-ethyl-5-fluorophenyl]-1,3,4-oxadiazol-2(3H)-one hydrochloride]: it took 3.4 nM to reach half-maximal inhibition in assay [1] (IC50). Further, in assay [2], the GI50 came to 37 nM.

In assay [1], `C=C(C)c1c(F)cc(-c2n[nH]c(=O)o2)cc1N[C@@H](C)[C@H]1CC[C@H](N)CC1` [Example 232, 5-[3-({(1S)-1-[(1r,4S)-4-aminocyclohexyl]ethyl}amino)-5-fluoro-4-(prop-1-en-2-yl)phenyl]-1,3,4-oxadiazol-2(3H)-one hydrochloride] gave an IC50 of 2 nM. For the same molecule, the GI50 in assay [2] was 28 nM.

In assay [1], `CC(C)c1c(F)cc(-c2n[nH]c(=O)o2)cc1N[C@@H](C)[C@H]1CC[C@H](N)CC1` [Example 233, 5-[3-({(1S)-1-[(1r,4S)-4-aminocyclohexyl]ethyl}amino)-5-fluoro-4-(propan-2-yl)phenyl]-1,3,4-oxadiazol-2(3H)-one hydrochloride] gave an IC50 of 5.5 nM. Besides, the GI50 in assay [2] worked out at 44 nM.

Molecule `N[C@H]1CC[C@H](CSc2cc(-c3n[nH]c(=O)o3)ccc2C(F)(F)F)CC1` [Example 234, 5-[3-({[(1r,4r)-4-aminocyclohexyl]methyl}sulfanyl)-4-(trifluoromethyl)phenyl]-1,3,4-oxadiazol-2(3H)-one] registered an IC50 in assay [1] of 2.6 nM. Moreover, the GI50 in assay [2] stood at 120 nM.

In assay [1], `O=c1[nH]nc(-c2ccc(Br)c(OCC3CCNCC3)c2)o1` [Example 235, 5-{4-bromo-3-[(piperidin-4-yl)methoxy]phenyl}-1,3,4-oxadiazol-2(3H)-one] returned an IC50 of 7.7 nM. The GI50 in assay [2] is 650 nM.

In assay [1], `CC(Oc1cc(-c2n[nH]c(=O)o2)ccc1Br)C1CCNCC1` (stereo not drawn) [Example 236] displayed an IC50 of 8.7 nM. Moreover, the GI50 in assay [2] is 180 nM.

For `CC(Oc1cc(-c2n[nH]c(=O)o2)ccc1Br)[C@H]1CC[C@H](N)CC1` (stereo partly drawn) [Example 237, 5-(3-{1-[(1r,4r)-4-aminocyclohexyl]ethoxy}-4-bromophenyl)-1,3,4-oxadiazol-2(3H)-one], half-maximal inhibition in assay [1] (IC50) required 5.3 nM. Besides, the GI50 in assay [2] is 90 nM.
